What was measured:
LKB1 = assay: Endogenous LKB1 immunofluorescence in skeletal muscle in vivo; parameters: species or system mouse; details: wild-type mice treated with SU6656
Fyn knockout mice = assay: Whole-body indirect calorimetry and body mass, Fyn knockout mice; format: in vivo, mouse
Excerpt: (§1) Eight- to ten-week-old male C57BL6/J, pp59^fyn null mice and their controls were obtained from The Jackson Laboratory (Bar Harbor, Me.) and housed in a facility equipped with a 12 hr light/dark cycle. Animals were fed ad libitum a standard chow diet (Research Diets, New Brunswick, N. J.) containing 75.9% (Kcal) carbohydrates, 14.7% protein, and 9.4% fat. All studies were approved by and performed in compliance with the guidelines of the Yeshiva University Institutional Animal Care and Use Committee (IACUC).
(§2) Oxygen and carbon dioxide consumption were simultaneously determined by Oxymax open-circuit indirect calorimetry system (eight-cage system) (Columbus Instruments). Animals were allowed to acclimatize for two complete light and dark cycles (48 hr), and SU6656 (2-oxo-3-(4,5,6,7-tetrahydro-1H-indol-2-ylmethylene)-2,3-dihydro-1H-indole-5-sulfonic acid dimethylamide) injections were performed at the beginning of the light cycle the following day. Measurements were subsequently taken 12 hr following the injection. Data were analyzed as the average of 1 hr measurements for each mouse. Instrument settings were as follows: gas flow rate, 0.6 1/min; sample flow rate, 0.5 1/min; settle time, 120 s; measure time, 60 s.
To address this issue, the metabolic effect of SU6656 on wild type versus Fyn knockout mice was investigated. […]

[1] = tested on: AMPK α subunit T172 phosphorylation; assay: Western blot of phospho-T172 AMPK in white gastrocnemius; format: in vivo, mouse; details: SU6656 4 mg/kg, 3 hr after injection, vs vehicle
Experimental: (§3) Animals were injected with vehicle or SU6656 (4 mg/kg) at the beginning of the light cycle. They were anesthetized and sacrificed by cervical dislocation 3 hr after the injection. Tissues were rapidly freeze clamped in liquid nitrogen and stored at […]. Protein preparation and blotting were performed as described below. Tissues were ground in liquid nitrogen and homogenized in a buffer containing 50 mM Tris (pH 7.4), 1% glycerol, and 1% Triton X-100 supplemented with protease inhibitor (Complete Mini, Roche Pharmaceuticals, Nutley, N. J.). Homogenates were centrifuged for 30 min at 14,000 rpm at 4° C., and supernatants were collected. Protein concentration was determined with the BCA™ Protein Assay (Thermo Scientific, Rockford, Ill.).
(§4) Protein samples (40 μg) were separated on 8% or 10% reducing polyacrylamide gels and transferred onto Immobilon-P polyvinylidene difluoride membranes. […] Alternatively, immunoblots were incubated with IRDye800CW goat antimouse (H+L) or IRDye680 goat anti-rabbit (H+L) secondary antibodies, and signal was detected with the Odyssey® Infrared Imaging System (Li-COR Biotechnology, Lincoln, Nebr.).

[2] = tested on: LKB1 subcellular localization in C2C12 muscle cell line; assay: GFP-LKB1 subcellular localization in C2C12 myotubes; format: cell-based; parameters: dose or concentration left out as unconfirmed; details: C2C12 myotubes transfected with pEGFP-LKB1
Experimental: FIGS. 4A-4F. Fyn Kinase Activity Regulates LKB1 Subcellular Distribution. (4A) C2C12 myotubes were transfected with pEGFP-LKB1 and incubated with vehicle or SU6656 ([…]) for 2 hr. Cells were fixed and mounted with proQ diamond with DAPI solution. (4B) Shown is percentage of cells with pEGFPLKB1 signal detected in the cytoplasm. (4C) C2C12 myotubes were cotransfected with pEGFP-LKB1 and pcDNA3-Fyn-KD or pcDNA3-Fyn-CA. Cells were fixed and incubated with the mouse Fyn monoclonal antibody. Immunofluorescence was performed using the Alexa Fluor 594 Anti-mouse IgG. (4D) Percentage of C2C12 cells with pEGFP-LKB1 signal detected in the cytoplasm. Data are representative of n=5 experiments. (4E) Fully differentiated 3T3L1 adipocytes were cotransfected with pcDNA3-LKB1 and pcDNA3-Fyn-KD or pcDNA3-Fyn-CA. […] (4F) Percentage of 3T3L1 cells with LKB1 signal detected in the cytoplasm. […]
The ratio of cytosolic and nuclear LKB1 was quantified using the Image J software (National Institutes of Health). […]
C2C12 myotubes were cotransfected with 50 μg pEGFP-C2-LKB1 or pcDNA3-Flag-LKB1 or pcDNA3-Flag-LKB1 mutants and 200 μg of the indicated pcDNA3-Fyn constructs. […] Cells were imaged using a confocal fluorescence microscope (TCS SP5 confocal; Leica Microsystems). […]

[3] = tested on: ACC S79 (ACC1) and S221 (ACC2) phosphorylation; assay: Western blot of phospho-ACC in white gastrocnemius; format: in vivo, mouse; details: SU6656 4 mg/kg, 3 hr after injection, vs vehicle
Experimental: as §3, §4

[4] = tested on: red soleus and white gastrocnemius muscles; assay: Fatty acid oxidation in isolated muscles (14C-palmitate to 14CO2); format: in vivo, mouse; details: relative to vehicle treated controls
Experimental: Animals received a single intraperitoneal injection of SU6656 or vehicle in the morning. Mice were sacrificed by cervical dislocation 3 hr after the injection. Skeletal muscles (red soleus and white gastrocnemius) were rapidly removed and preincubated for 10 min in oxygenated (95% O2, 5% CO2) Earle's solution (Invitrogen, Carlsbad, Calif.) supplemented with 5 mMD-glucose, 250 μM palmitate, and 0.5% BSA plus either 10 μM SU6656 or an equal volume of DMSO. Tissues were incubated for 45 min in the same buffer containing […] palmitate containing 1 μCi/ml [1-^14C] palmitate tracer (Amersham, Piscataway, N. J.) bound to 0.5% BSA. Incubations were carried out under an atmosphere of 95% O2/5% CO2 at 30° C. in glass vials (Kontes, Vineland, N.J.) equipped with a center well filled with 200 μl of 2N NaOH (trapping agent). At the end of the incubation, perchloric acid was added through the cap to a concentration of […], and vials were incubated for 3 hr at 30° C. with moderate shaking. The ^14CO2 produced was determined by scintillation counting of NaOH using the UniScintBD scintillation liquid (National Diagnostics, Atlanta, Ga.).
As mice generally consume 80% of their calories during the dark cycle and have a limited food intake during the light cycle, they undergo a diurnal pattern of weight gain and loss as shown by the decreased body mass at T=12 hr in the vehicle-treated mice. […]

Wild-type mice = assay: Whole-body indirect calorimetry, wild-type mice; format: in vivo, mouse
Excerpt: as §1, §2
Loss of Fyn kinase protein in the conventional Fyn knockout mice leads to increased lipid utilization and energy expenditure, particularly in the fasting/resting state (Bastie et al., 2007). To examine the effects of acute Fyn inhibition, the in vivo effects of the pharmacological selective Src family kinase inhibitor SU6656 was investigated. Wild-type mice were placed into metabolic chambers and allowed to acclimatize for 48 hr. Intraperitoneal injection of SU6656 or vehicle was performed at the beginning of the light cycle (fasting/resting state), and the respiratory quotient (RQ), oxygen consumption (VO2), energy expenditure (EE), and physical activity were monitored for the following 12 hr. […] Oxygen consumption and energy expenditure were similar in both groups before the injection and were decreased during the light period as the animals were resting with reduced basal metabolism.

Fyn kinase = Fyn kinase (Homo sapiens, UniProt P06241); parameters: dose or concentration left out as unconfirmed; details: cited from earlier work
[5] = Total body mass and magnetic resonance imaging (fat and lean mass), wild-type mice; format: in vivo, mouse
Experimental: Total body mass (g) was recorded before (T=0) and 12 hr (T=12 hr) after the SU6656 injection. To determine fat and lean mass, animals were placed in a clear plastic holder without anesthesia or sedation and inserted into the EchoMRI-3-in-1™ System from Echo Medical Systems (Houston, Tex., USA). Total body fat and lean mass were measured before (T=0) and after (T=12 hr) after the injection.
As mice generally consume 80% of their calories during the dark cycle and have a limited food intake during the light cycle, they undergo a diurnal pattern of weight gain and loss as shown by the decreased body mass at T=12 hr in the vehicle-treated mice. […] To determine whether the lowered RQ in the mice treated with SU6656 was directly due to increased skeletal muscle fatty acid oxidation, red soleus and white gastrocnemius muscles were isolated 3 hr following the vehicle or SU6656 injection and incubated with ^14C-palmitate. The oxidation of ^14C-palmitate to ^14CO2 was increased 25% and 33%, respectively, in the soleus and the gastrocnemius of the SU6656-treated mice relative to vehicle treated controls (FIGS. 3A and 3B). The SU6656-stimulated increase in fatty acid oxidation occurred concomitantly, with an approximate 3-fold increased AMPK α subunit T172 phosphorylation and increased ACC S79 (ACC1) and S221 (ACC2) phosphorylation levels (FIGS. 3C and 3D).

[6] = SU6656 4 mg/kg intraperitoneal, light period, 12 hr following injection

Sequence of Fyn kinase (P06241 1-534 isoform P06241-2): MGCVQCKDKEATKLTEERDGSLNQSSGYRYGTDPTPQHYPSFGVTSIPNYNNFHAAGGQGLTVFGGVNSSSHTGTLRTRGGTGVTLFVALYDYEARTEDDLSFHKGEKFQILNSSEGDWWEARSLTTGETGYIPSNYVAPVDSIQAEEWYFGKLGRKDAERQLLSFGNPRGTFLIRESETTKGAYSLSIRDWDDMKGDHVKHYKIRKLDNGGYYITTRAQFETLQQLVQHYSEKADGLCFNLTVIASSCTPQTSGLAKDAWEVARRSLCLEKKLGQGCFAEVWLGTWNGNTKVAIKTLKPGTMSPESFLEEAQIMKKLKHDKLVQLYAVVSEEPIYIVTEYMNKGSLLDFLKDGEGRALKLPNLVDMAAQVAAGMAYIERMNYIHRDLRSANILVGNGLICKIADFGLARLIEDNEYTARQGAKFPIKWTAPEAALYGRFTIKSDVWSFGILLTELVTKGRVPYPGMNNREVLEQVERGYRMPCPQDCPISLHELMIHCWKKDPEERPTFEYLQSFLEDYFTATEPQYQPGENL

CN(C)S(=O)(=O)c1ccc2c(c1)C(=Cc1cc3c([nH]1)CCCC3)C(=O)N2 [SU6656, 2-oxo-3-(4,5,6,7-tetrahydro-1H-indol-2-ylmethylene)-2,3-dihydro-1H-indole-5-sulfonic acid dimethylamide]
LKB1 signal in the cytoplasm of muscle cells (LKB1): increased LKB1 signal | body mass or physical activity in Fyn null mice (Fyn knockout mice; after SU6656 treatment): no alterations | rate of change or RQ level in Fyn knockout mice (Fyn knockout mice; three-month-old Fyn knockout mice, SU6656 vs vehicle): no significant effect | increased AMPK α subunit T172 phosphorylation [1]: ~3 fold | cells with redistribution of LKB1 into the cytoplasm [2]: approximately 65% | ACC S79 (ACC1) and S221 (ACC2) phosphorylation levels [3]: increased | increase in oxidation of 14C-palmitate to 14CO2, soleus ([4]; red soleus isolated 3 hr after injection): 25% | increase in oxidation of 14C-palmitate to 14CO2, gastrocnemius ([4]; white gastrocnemius isolated 3 hr after injection): 33% | decrease of respiratory quotient (RQ) (Wild-type mice; SU6656 4 mg/kg intraperitoneal at beginning of light cycle, vs vehicle, particularly first 3 hr after injection): more pronounced | energy expenditure (EE) elevation vs vehicle (Wild-type mice; [6]): 14% | oxygen consumption (VO2) elevation vs vehicle (Wild-type mice; [6]): 14% | physical activity (Wild-type mice; SU6656 4 mg/kg, dark or light cycle): without any alteration | respiratory quotient (RQ), wild-type controls of Fyn knockout mice (Wild-type mice; three-month-old wild-type mice, SU6656 vs vehicle, 12 hr following injection): lower RQ | Fyn kinase activity (Fyn kinase): sufficient to inactivate | total weight loss greater than vehicle-treated group ([5]; 12 hr after SU6656 injection): 40% | fat mass ([5]; T=12 hr, SU6656-treated vs vehicle-injected control animals): significantly reduced | lean mass ([5]; T=12 hr, vehicle vs SU6656-injected mice): no significant difference
